In US11524096B2, “Wetting agent formulation” (TELEFLEX LIFE SCIENCES PTE. LTD., priority 2016, dated 2022):

Key:
[1] = Relative dissolution of propyl gallate depending on sequence of mixing steps; assay type: physicochemical
Text: In the case where glycerol is employed, it may be necessary to add some heat to the solution in order to achieve full dissolution of the propyl gallate. Further, the sequence of the mixing steps and its effect on the relative dissolution of propyl gallate when all component concentrations and temperature are kept constant, is as follows: • Addition of propylene glycol to propyl gallate, then addition of saline or distilled water: fast reaction (high rate of dissolution of propyl gallate); • Addition of saline/distilled water to propyl gallate, then addition of propylene glycol: slow reaction (low rate of dissolution of propyl gallate); • Addition of propylene glycol to saline/distilled water, then addition of propyl gallate: fast reaction (high rate of dissolution of propyl gallate); • Employing glycerol instead of propylene glycol: slow reaction (low rate of dissolution of propyl gallate).

[2] = without propylene glycol; cited from earlier work

rate of dissolution of propyl gallate ([1]; Addition of propylene glycol to propyl gallate, then addition of saline or distilled water, concentrations and temperature constant): fast reaction
rate of dissolution of propyl gallate ([1]; Addition of propylene glycol to saline/distilled water, then addition of propyl gallate): fast reaction
rate of dissolution of propyl gallate ([1]; Addition of saline/distilled water to propyl gallate, then addition of propylene glycol): slow reaction
rate of dissolution of propyl gallate ([1]; Employing glycerol instead of propylene glycol): slow reaction
SMILES: CCCOC(=O)c1cc(O)c(O)c(O)c1 [PG, propyl 3,4,5-trihydroxybenzoate]
solubility in water (in words) [2]: only slightly soluble
